We go through 9 molecules from patent EP2246331A1, “NR2B-selective NMDA-receptor antagonists” (Westfälische Wilhelms-Universität Münster, priority 2009, dated 2010).

As usually defined, the Kd is the equilibrium constant for the complex coming apart.

In one experiment the target is T1, σ2 receptor (Rattus norvegicus, UniProt Q5U3Y7).
T1 construct: tissue Harlan Winkelmann; host or cells: rat liver membranes
T1 sequence (Q5U3Y7 1-176): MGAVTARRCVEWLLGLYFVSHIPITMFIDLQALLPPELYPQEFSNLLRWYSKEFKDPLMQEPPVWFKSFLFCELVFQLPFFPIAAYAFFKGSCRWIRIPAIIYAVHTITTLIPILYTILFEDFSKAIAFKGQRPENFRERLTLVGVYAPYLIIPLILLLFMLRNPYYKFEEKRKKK
Put plainly: Receptor binding assay with [3H]-ditolylguanidine on rat liver membranes. As to conditions: 3 nM [3H]-ditolylguanidine with 2 µM (+)-pentazocine, 180 min at room temperature, mean ± SEM, read-out: affinity to the σ2 receptor. As to the method:
(§1) The pig brains were a donation of the local slaughterhouse (Coesfeld, Germany). Homogenizer: Elvehjem Potter (B. Braun Biotech International, Melsungen, Germany). Centrifuge: High-speed cooling centrifuge model Sorvall RC-5C plus (Thermo Fisher Scientific, Langenselbold, Germany). Filter: Printed Filtermat Typ A and B (Perkin Elmer LAS, Rodgau-Jügesheim, Germany), presoaked in 0.5% aqueous polyethylenimine for 2 h at room temperature before use. […] Before filling to the final volume of 1000 mL, the pH of the solution was adjusted to pH=7.5 by dropwise addition of 1M HCl. The filtration was carried out with a MicroBeta FilterMate-96 Harvester (Perkin Elmer). The scintillation analysis was performed using Meltilex (Typ A or B) solid scintillator (Perkin Elmer). The solid scintillator was melted on the filtermat at a temperature of 95 °C for 5 minutes. After solidifying of the scintillator at room temperature, the scintillation was measured using a MicroBeta Trilux scintillation analyzer (Perkin Elmer). The overall counting efficiency was 20 %. All experiments were carried out in triplicates using standard 96-well-multiplates (Diagonal, Muenster, Germany). […] The Ki-values are given as mean value ± SEM from three independent experiments.
Determination of affinity to the σ2 receptor
Two rat livers (Harlan Winkelmann, Borchen, Germany) were cut into smaller pieces and homogenized with the potter (500-800 rpm, 10 up-and-down strokes) in 6 volumes of cold 0.32 M sucrose. The suspension was centrifuged at 1200 x g for 10 min at 4 °C. The supernatant was separated and centrifuged at 31000 x g for 20 min at 4 °C. The pellet was resuspended in 5-6 volumes of buffer (50 mM TRIS, pH 8.0) and incubated at room temperature for 30 minutes. After the incubation, the suspension was centrifuged again at 31000 x g for 20 min at 4 °C. The final pellet was resuspended in 5 to 6 volumes of buffer, the protein concentration was determined according to the method of Bradford using bovine serum albumin as standard, and subsequently the preparation was frozen (-80 °C) in 1.5 mL portions containing about 2 mg protein/mL.
(50 Ci/mmol; ARC). […] The incubation was terminated by rapid filtration through the presoaked filtermats using a cell harvester. After washing each well five times with 300 µL of water, the filtermats were dried at 95 °C. Subsequently, the solid scintillator was placed on the filtermat and melted at 95 °C. The bound radioactivity trapped on the filters was counted in the scintillation analyzer as described in the "General procedures" section.

For experiment [1], the target named is T2, polyamine binding site of the NR2B subunit of the NMDA receptor (Homo sapiens, UniProt Q05586+Q13224).
T2 construct: expressed in transfected cells; host or cells: mouse L(tk-) cells, dexamethasone-induced; gift from D. Steinhilber, University of Frankfurt
T2 sequence (Q13224 27-1484, other chains not shown): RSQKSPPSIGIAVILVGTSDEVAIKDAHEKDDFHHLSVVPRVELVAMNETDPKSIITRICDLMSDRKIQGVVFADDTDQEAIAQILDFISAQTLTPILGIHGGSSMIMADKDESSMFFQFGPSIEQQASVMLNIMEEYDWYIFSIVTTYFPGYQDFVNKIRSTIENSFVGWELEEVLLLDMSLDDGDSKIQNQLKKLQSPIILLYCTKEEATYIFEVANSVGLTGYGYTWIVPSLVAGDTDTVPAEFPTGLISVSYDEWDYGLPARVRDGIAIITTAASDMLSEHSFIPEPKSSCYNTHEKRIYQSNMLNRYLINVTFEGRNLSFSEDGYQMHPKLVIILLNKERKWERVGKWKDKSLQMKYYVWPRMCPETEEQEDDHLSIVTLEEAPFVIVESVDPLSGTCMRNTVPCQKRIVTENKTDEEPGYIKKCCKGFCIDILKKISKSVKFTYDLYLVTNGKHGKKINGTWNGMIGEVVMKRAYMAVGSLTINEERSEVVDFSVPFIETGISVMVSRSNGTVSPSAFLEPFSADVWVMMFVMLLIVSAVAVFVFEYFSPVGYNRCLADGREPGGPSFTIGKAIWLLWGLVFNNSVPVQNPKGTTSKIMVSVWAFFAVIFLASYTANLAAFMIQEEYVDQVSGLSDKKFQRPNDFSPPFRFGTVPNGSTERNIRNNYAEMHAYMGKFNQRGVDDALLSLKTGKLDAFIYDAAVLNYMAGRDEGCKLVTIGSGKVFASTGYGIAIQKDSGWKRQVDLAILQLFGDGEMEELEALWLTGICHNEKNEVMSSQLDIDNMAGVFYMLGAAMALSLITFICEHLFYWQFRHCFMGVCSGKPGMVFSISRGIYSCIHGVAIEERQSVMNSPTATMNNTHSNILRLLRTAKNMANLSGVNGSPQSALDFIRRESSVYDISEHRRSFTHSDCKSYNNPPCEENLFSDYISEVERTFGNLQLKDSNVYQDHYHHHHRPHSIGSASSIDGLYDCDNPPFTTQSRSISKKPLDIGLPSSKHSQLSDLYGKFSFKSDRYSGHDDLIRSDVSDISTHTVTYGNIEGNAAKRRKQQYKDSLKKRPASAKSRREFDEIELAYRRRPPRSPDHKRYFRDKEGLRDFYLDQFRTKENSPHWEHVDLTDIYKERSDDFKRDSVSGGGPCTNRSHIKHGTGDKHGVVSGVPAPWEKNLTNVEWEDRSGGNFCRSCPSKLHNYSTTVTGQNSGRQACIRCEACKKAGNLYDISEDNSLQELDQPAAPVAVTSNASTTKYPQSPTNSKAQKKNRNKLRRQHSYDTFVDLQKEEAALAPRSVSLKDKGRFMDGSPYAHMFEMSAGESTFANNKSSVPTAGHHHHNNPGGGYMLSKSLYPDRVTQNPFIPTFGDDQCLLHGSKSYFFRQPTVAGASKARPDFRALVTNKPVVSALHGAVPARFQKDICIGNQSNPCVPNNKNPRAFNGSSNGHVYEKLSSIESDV
Put plainly: Filtration-based receptor binding assay with [3H]-Ifenprodil as radioligand. To be noted: 5 nM [3H]-Ifenprodil, membrane homogenates of mouse L(tk-) cells transfected with NR1-1a/NR2B, 180 min at 37 °C, read-out: affinity to the NR2B binding site of the NMDA receptor. The method, then:
Mouse L(tk-) cells stably transfected with the dexamethasone-inducible eukaryotic expression vectors pMSG NR1-1a, pMSG NR2B in a 1:5 ratio were a generous gift from D. Steinhilber (Department of Pharmacy, University of Frankfurt, Germany). The transformed L(tk-) cells were grown in Modified Earl's Medium (MEM) containing 10% of standardized FCS (Biochrom AG, Berlin, Germany). The expression of the NMDA receptor at the cell surface was induced after the cell density of the adherent growing cells had reached approximately 90% of confluency. For the induction, the original growth medium was replaced by growth medium containing 4 µM dexamethasone and 4 µM ketamine (final concentration). After 24 h the cells were harvested by trypsination and pelleted (10 min, 5,000 x g, Hettich Rotina 35R centrifuge, Tuttlingen, Germany).
For the binding assay, the cell pellet was resuspended in PBS buffer and the number of cells was determined using an improved Neubauer's counting chamber (VWR, Darmstadt, Germany). Subsequently, the cells were lysed by sonication (4 °C, 6 x 10 s cycles with breaks of 10 sec). The resulting cell fragments were centrifuged with a high performance cool centrifuge (20,000 x g, 4 °C, Sorvall RC-5 plus, Thermo Scientific). The supernatant was discarded and the pellet resuspended in a defined volume of phosphate buffer saline (PBS) yielding cell fragments of approximately 500,000 cells/mL. The suspension of membrane homogenates was sonicated again (4 °C, 2 x 10 s cycles with a break of 10 min) and stored at -80 °C.
The cell membrane suspension was added last. All experiments were carried out in triplicates. The incubation was terminated by rapid filtration through filtermats using a cell harvester (MicroBeta FilterMate-96 Harvester, Perkin Elmer). Prior to harvesting, the filtermats were presoaked in 0.5% aqueous polyethylenimine for 2 h at room temperature. After washing each well five times with 300 µL of water, the filtermats were dried at 95 °C. Subsequently, the solid scintillator was placed on the filtermat and melted at 95 °C. After 5 min, the solid scintillator was allowed to solidify at room temperature. The bound radioactivity trapped on the filters was counted in the scintillation analyzer (Microbeta Counter, Perkin Elmer). The overall counting efficiency was 20%.
The protein concentration was determined by the method of Bradford, modified by Stoscheck. The Bradford solution was prepared by dissolving 5 mg of Coomassie Brilliant Blue G 250 in 2.5 mL EtOH (95%, v/v). 10 mL deionized H2O and 5 mL phosphoric acid (85%, m/v) were added to this solution, the mixture was stirred and filled up to a total volume of 50.0 mL with deionized water. The calibration was carried out using bovine serum protein as a standard in concentrations between 0.1 and 10 mg /L. In a 96-well standard multiplate, 10 µL of the calibration solution or 10 µL of the membrane receptor preparation were mixed with 190 µL of the Bradford solution, respectively.
Kd and Bmax were calculated as described in the "Data analysis" section.
Data analysis was performed with Graph Pad Prism® Software, Version 3.0 (Graph Pad Software Inc., San Diego, CA, USA).
Saturation analyses were made by nonlinear regression using the "one-site-saturation" calculation method. The IC50 values of the test compounds used in the competitive binding experiments were determined by nonlinear regression using the "one-site-competition" calculation method. […] The Ki values are given as mean values from three independent experiments ± Standard Error of the Mean (S.E.M).

The target of a further experiment is T3, σ1 receptor (Cavia porcellus, UniProt Q60492).
T3 construct: tissue Harlan Winkelmann; host or cells: guinea pig brain membranes
T3 sequence (Q60492 whole entry): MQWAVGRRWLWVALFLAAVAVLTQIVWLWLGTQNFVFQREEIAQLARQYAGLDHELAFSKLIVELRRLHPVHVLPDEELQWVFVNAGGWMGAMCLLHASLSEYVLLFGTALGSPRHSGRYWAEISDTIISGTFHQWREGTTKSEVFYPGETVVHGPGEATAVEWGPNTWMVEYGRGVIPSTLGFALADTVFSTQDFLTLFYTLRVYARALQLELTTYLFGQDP
Kind of experiment: Receptor binding assay with [3H]-(+)-pentazocine on guinea pig brain membranes. As to conditions: 2 nM [3H]-(+)-pentazocine, guinea pig brain membranes; for Ki: 180 min at 37 °C, mean ± SEM, read-out: affinity to the σ1 receptor. The method, then: as §1
Determination of the affinity to the σ1 receptor
Five guinea pig brains (Harlan Winkelmann, Borchen, Germany) were homogenized with the potter (500-800 rpm, 10 up-and-down strokes) in 6 volumes of cold 0.32 M sucrose. The suspension was centrifuged at 1200 x g for 10 min at 4 °C. […] This procedure was repeated twice. The final pellet was resuspended in 5 to 6 volumes of buffer, the protein concentration was determined according to the method of Bradford using bovine serum albumin as standard, and subsequently the preparation was frozen (-80 °C) in 1.5 mL portions containing about 1.5 mg protein/mL.
The test was performed with the radioligand [^3H]-(+)-pentazocine (42,5 Ci/mmol; Perkin Elmer). […] The incubation was terminated by rapid filtration through the presoaked filtermats using a cell harvester. After washing each well five times with 300 µl of water, the filtermats were dried at 95 °C. The bound radioactivity trapped on the filters was counted in the scintillation analyzer as described in the "General procedures" section. The non-specific binding was determined with 10 µM unlabeled (+)-pentazocine.

For experiment [2], the target named is phencyclidine binding site of the NMDA receptor. As to conditions: radioligand constant; T. Utech, Dissertation, 2003, Universität Freiburg; cited from earlier work.
Setting [3] is: Ki mean of three experiments ± S.E.M.

Where two headings read alike, the source gives them in different places.

As to `COc1ccc2c(c1)CCN(CCCCc1ccccc1)[C@@H](C)[C@H]2O` [formula (17)], the Ki at σ2 receptor came to 6.08 ± 1.48 nM; in experiment [1] (setting [3]), 0.209 µM; at σ1 receptor, 42.1 ± 9.9 nM.

Take `COc1ccc2c(c1)CCN(CCCCc1ccccc1)[C@H](C)[C@@H]2O` [formula (18)]: the Ki at σ2 receptor turned out to be 18.5 ± 4.2 nM; in experiment [1] (setting [3]), 0.586 µM; on σ1 receptor it was 3.21 ± 1.42 nM.

For `OC1CN(C2CCC(c3ccccc3)CC2)CCc2cc(OCc3ccccc3)ccc21` (stereo not shown) [formula (20)], the figures for the Ki (on σ2 receptor; in experiment [1] (values given in µM); on σ1 receptor) were 311 nM, 2.51 µM and 10.4 ± 1.4 nM, respectively.

With `Oc1ccc2c(c1)CCN(CCCOc1ccccc1)CC2O` (stereo not shown) [formula (22)], the Ki at σ2 receptor amounted to 5.89 ± 2.86 nM; in experiment [1] (setting [3]), 0.0234 µM; at σ1 receptor, 82.2 nM.

For `OC1CN(C2CCC3(CC2)OCCO3)CCc2cc(OCc3ccccc3)ccc21` (stereo not shown) [formula (25)], the values for the Ki (at σ2 receptor; in experiment [1] (setting [3]); on σ1 receptor) were 753 nM, 0.00112 µM and 183 nM, respectively.

Turning to `O=C(c1ccccc1)N1CCC(N2CCc3cc(O)ccc3C(O)C2)CC1` (stereo not shown) [formula (26)], the values for the Ki (on σ2 receptor; in experiment [1] (setting [3])) were 97.7 nM and 0.393 µM, respectively. Further, the “inhibition of the σ1 receptor only at concentrations above” value at σ1 receptor (given as above 1 µM or 10 µM) was “above 1 µM”.

Turning to `C[C@@H]1[C@H](O)c2ccc(O)cc2CCN1CCCCc1ccccc1` [formula (27)], the Ki is 142 nM on σ2 receptor, 0.0123 µM in experiment [1] (setting [3]) and 85.5 nM on σ1 receptor.

On to `C[C@H]1[C@@H](O)c2ccc(O)cc2CCN1CCCCc1ccccc1` [formula (28)], for which the Ki stood at 103 nM on σ2 receptor, 0.0221 µM in experiment [1] (setting [3]) and 393 nM on σ1 receptor.

Turning to (+)-MK-801, the dissociation constant Kd in experiment [2] was 2.26 nM.
